From article PMC9332470, “Production and Selection of Antibody–Antigen Pairs for the Development of Immunoenzyme Assay and Lateral Flow Immunoassay Methods for Carbofuran and Its Analogues” (Biosensors, 2022)
Values after ≈ are worked out from the molar mass of the structure shown.

Tests used:
[1] = system: mAb with the immunogen BFNH-lactoferrin; conditions: heterologous coating antigen BFOA-BSA; cited from earlier work
mAb 6D6 = experiment: ELISA reactivity of hybridoma supernatant, cell line 6D6; assay type: binding, BALB/c mice; conditions: cell line 6D6 supernatant, 50 ng/mL pesticide
Method: The desired antibodies with the highest affinity were screened by icELISA with carbofuran as a competitive compound, and hybridoma cells were cloned by the limited dilution method. Then, the selected hybridoma cells were injected into mice for ascites production. Finally, the mAbs were purified by (NH4)2SO4 with saturation of 50% and further purified by an SPA column.
Microplates were coated with coating antigens. Different concentrations of the standard (50 µL) and the mAb (50 µL) were added to each well, and the plates were incubated for 20 min at 37 °C. The plates were washed with PBS (0.01 M, containing 0.05% (v/v) Triton X-100), 100 μL of goat anti-mouse IgG-HRP conjugate solution was added to each well, and the plates were incubated for 20 min at 37 °C. After the plates were washed with PBS (0.01 M, containing 0.05% Triton X-100, v/v), 100 µL of TMB single-component substrate solution was added to each well, followed by incubation at 37 °C for 10 min. Finally, the reaction was terminated, and the absorbance at 450 nm was measured by a microplate reader.
(§1) The inhibition ratio (I%) was calculated as (B0-B)/B0 × 100%. IC50 is the concentration of the carbofuran at an I% of 50%, and the limit of detection (LOD) was determined as the concentration showing 10% of inhibition.
Then, the reactivity of the supernatant of the six cell lines to 50 ng/mL carbofuran, benfuracarb and carbosulfan was assessed by ELISA, and the results are shown in Table 1. […] Because 13C8 had the highest reactivity with carbofuran, benfuracarb and carbosulfan among the six cell lines, it was injected into mice for ascites production, and the mAbs were purified by a protein A column for further experiments.

[2] = system: mAb with the immunogen 3-succinyl-carbofuran-KLH; conditions: cited from earlier work
mAb 13C8 = experiment: quantum dot-based LFIA (QD-LFIA) with mAb 13C8; assay type: binding, BALB/c mice
Method: One milliliter of QDs was added to 9 mL of MES (0.054 M at pH 6.0) and centrifuged at 10,956× g for 20 min. Then, the precipitate was resuspended in 10 mL of MES (0.05 M at pH 6.0). After dispersion by ultrasonication for 2 min, EDC (20 mg) and NHS (20 mg) were added, and the reaction mixture was incubated for 30 min, followed by centrifugation at 10,956× g for 20 min. The precipitate was resuspended in 10 mL of MES (0.05 M at pH 6.0). Then, 1 mg of the mAb dissolved in 10 mL MES (0.027 M at pH 8.0) was added to the QD mixture and shaken at 25 °C and 180 rpm for 90 min. After the reaction, 5 mL of MES (0.054 M at pH 6.0 containing 1.6% BSA, w/v) was added, and the mixture was shaken at 25 °C and 180 rpm for 40 min, followed by centrifugation at 10,956× g for 20 min. The precipitate was resuspended in 10 mL of PB (0.01 M at pH 6.0, containing 5% casein, 1% glucose, 1.5% alanine and 0.05% NaN3, w/v) and dispersed by ultrasonication for 2 min.
The conjugate pad (6 mm × 300 mm) was pretreated with PBS (containing 0.5% Triton X-100, 0.5% alanine and 0.05% NaN3, w/v). Then, 1 mL of the mAb–QD conjugate was sprayed onto the pretreated conjugate pad at a flow rate of 10 μL/cm, and the pad was dried at 37 °C for 2 h. Other applied protocols were similar to those mentioned above.
Taking the logarithm of the carbofuran concentration as the abscissa and (B/B0)% as the ordinate, the standard curves for ELISA and QD-LFIA were obtained based on the Morgan–Mercer–Flodin (MMF) model, which were fitted by CurveExpert 1.4.0 software (https://www.curveexpert.net, accessed on 15 July 2022). For the ELISA method, B and B0 are the absorbance of the sample well and blank well, respectively. For the QD-LFIA method, B and B0 are the T/C (fluorescence intensity of the test line/fluorescence intensity of the control line) of the sample and blank control, respectively.
as §1
The cross-reactivities (CRs) of benfuracarb, carbosulfan, 3-hydroxy-carbofuran, metolcarb, carbaryl, isoprocarb and aldicarb with carbofuran were assessed by ELISA and QD-LFIA. CR was calculated as CR (%) = [IC50 (carbofuran)/IC50 (analogues)] × 100%.
Then, to prepare QD-LFIA test strips, DDB-BSA (40 μg/mL), DDB-OVA (50 μg/mL), MDA-BSA (35 μg/mL) and MDA-OVA (30 μg/mL) were dispensed onto the NC membrane, and antibody 13C8 was conjugated to the QDs. Carbofuran standards (0, 0.05, 0.15, 0.45, 1.35 and 4.05 ng/mL) were detected to obtain a standard curve, and the IC50 was calculated. […] In LFIA, carbofuran in solution competed with the coating antigen on the NC membrane for antibody 13C8 conjugated to the QDs.
A standard curve was developed with the inhibition ratio (B/B0) versus the logarithm of the concentration of carbofuran.

[3] = system: sol–gel-entrapped antibody; conditions: label-free electrochemical immunosensor; cited from earlier work
[4] = system: mAb with the immunogen BFNB-KLH; conditions: homologous coating antigen BFNB-OVA; cited from earlier work

CNC(=O)Oc1cccc2c1OC(C)(C)C2 [carbofuran]
IC50 (ELISA) [1]: 1.4 ng/mL (≈ 6.33 nM)
Reactivity of mAb (I%) (mAb 6D6): 86%
CR(%) (ic-ELISA) [2]: 100.0%
IC50 (ic-ELISA) [2]: 0.76 ± 0.07 ng/mL (≈ 3.43 nM)
CR (%) (QD-LFIA) (mAb 13C8; CR = IC50(carbofuran)/IC50(analogue) x 100%, QD-LFIA with mAb 13C8): 100.0%
IC50 (QD-LFIA) (mAb 13C8; antibody 13C8, antigen DDB-BSA (40 μg/mL) on NC membrane): >1000 ng/mL
IC50 (QD-LFIA) (mAb 13C8; antibody 13C8, antigen DDB-OVA (50 μg/mL) on NC membrane): >1000 ng/mL
IC50 (QD-LFIA) (mAb 13C8; antibody 13C8, antigen MDA-BSA (35 μg/mL) on NC membrane): 0.68 ± 0.03 ng/mL (≈ 3.07 nM)
IC50 (QD-LFIA) (mAb 13C8; antibody 13C8, antigen MDA-OVA (30 μg/mL) on NC membrane): 0.66 ± 0.03 ng/mL (≈ 2.98 nM)
detection limit (QD-LFIA) (mAb 13C8; concentration showing 10% of inhibition): 0.04 ng/mL
reaction of QD-LFIA test strips (mAb 13C8; homologous coating antigens DDB-BSA and DDB-OVA): almost no reaction
working range (QD-LFIA) (mAb 13C8; optimized QD-LFIA): 0.04 to 4.21 ng/mL
IC50 (QD-LFIA) (mAb 13C8; optimized QD-LFIA, mAb 13C8-QD, T line antigen 30 μg/mL, given as MDA-BSA and MDA-OVA): 0.67 ± 0.08 ng/mL (≈ 3.03 nM)
IC50 of QD-LFIA with heterologous coating antigens (mAb 13C8; span over MDA-BSA and MDA-OVA): 0.66–0.68 ng/mL
detection limit [3]: 0.33 ng/mL
IC50 (ic-ELISA) [4]: 0.3 ng/mL (≈ 1.36 nM)
